In patent publication US9346834B2, “Boron-containing small molecules as antiprotozoal agents” (Anacor Pharmaceuticals, Inc., priority 2009, dated 2016):

Tested on: Leishmania infantum MHOM/MA(BE)/67
Assay: Leishmania infantum macrophage screening assay, primary screen
Format: cell-based
Settings: 120 h, amastigotes in primary peritoneal mouse macrophages, 5 days incubation, % reduction in parasite burden, reference drugs, read-out: IC50 (50% inhibitory concentration)
Method: Parasite and Cell Cultures. Two Leishmania species (L. infantum MHOM/MA(BE)/67 and L. donovani MHOM/ET/67/L82) were used. The strains were maintained in the Golden Hamster (Mesocricetus auratus). Amastigotes were collected from the spleen of an infected donor hamster using three centrifugation purification steps (300 rpm, keeping the supernatant, 2200 rpm, keeping the supernatants and 3500 rpm, keeping the pellet) and spleen parasite burdens were assessed using the Stauber technique (Stauber L A., Exp Parasitol. 18: 1-11 (1966)). Primary peritoneal mouse macrophages were used as host cell and were collected 2 days after peritoneal stimulation with a 2% potato starch suspension. All cultures and assays were conducted at 37° C. under an atmosphere of 5% CO2.
Compound Solutions/Dilutions. Compound stock solutions were prepared in 100% DMSO at 20 mM or mg/ml. Concentrations were standard and expressed in molar concentrations, except for natural products, drug mixtures and if the molecular weight was not known. […]
Drug Sensitivity Assays. […] After 5 days incubation, parasite burdens (mean number of amastigotes/macrophage) were microscopically assessed after staining the cells with a 10% Giemsa solution. The results were expressed as % reduction in parasite burden compared to untreated control wells and an IC50 (50% inhibitory concentration) was calculated. […]

IC50: 4.3 µM
SMILES: CCCCCCCCCCCCCCCCOP(=O)([O-])OCC[N+](C)(C)C [miltefosin]
